Results reported in patent US10822325B2, “Human GLUT5 specific inhibitors and methods of treatment” (UNM RAINFOREST INNOVATIONS, priority 2015, dated 2020).
Entries after “also recorded” stand apart in the source; their conditions may differ.

How the values were obtained:
[1] = target: T1, human GLUT3 (Homo sapiens, UniProt P11169); experiment: Glucose entrance counter-flow transport in GLUT3 proteoliposomes; format: biochemical; conditions: 2 mM compound
T1 construct: Full length DNA was subcloned into pFastBac1 (Life Technologies) vector with a N-terminal hexahistidine tag; hexahistidine (N); made in house; host or cells: Sf21 insect cells (baculovirus, pFastBac1)
T1 sequence (P11169 1-496): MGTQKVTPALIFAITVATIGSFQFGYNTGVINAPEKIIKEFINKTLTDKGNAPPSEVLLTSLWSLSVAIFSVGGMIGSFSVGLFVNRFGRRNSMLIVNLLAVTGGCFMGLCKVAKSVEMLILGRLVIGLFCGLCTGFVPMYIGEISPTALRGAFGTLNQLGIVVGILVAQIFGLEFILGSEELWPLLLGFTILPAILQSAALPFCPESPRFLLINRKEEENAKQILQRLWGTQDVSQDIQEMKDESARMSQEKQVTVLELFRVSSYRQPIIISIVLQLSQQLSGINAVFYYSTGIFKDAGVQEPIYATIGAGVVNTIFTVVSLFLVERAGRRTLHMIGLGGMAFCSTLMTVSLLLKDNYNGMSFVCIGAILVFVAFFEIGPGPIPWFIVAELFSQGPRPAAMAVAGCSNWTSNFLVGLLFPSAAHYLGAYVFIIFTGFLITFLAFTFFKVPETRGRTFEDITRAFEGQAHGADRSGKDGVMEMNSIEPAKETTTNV
Description: (§1) cDNAs of GLUT1, 3, 4 and 5 were purchased from Open Biosystems (GE Healthcare). cDNAs of GLUT2 was a gift from Prof. Graeme Bell at University of Chicago. Full length DNA was subcloned into pFastBac1 (Life Technologies) vector with a N-terminal hexahistidine tag. Bacmids were generated in DH10Bac E. coli cells (Life Technologies). Baculoviruses were produced using Cellfectin II Reagent and amplified in Sf21 insect cells (Life Technologies). Cells were maintained at 26° C., and P1 (10^6 pfu/mL) was collected from infected cells after 72 hours. SF21 cells were propagated in HyClone SFX-Insect media (GE Healthcare), supplemented with 5% fetal bovine serum (Biowest), 4.8 mM glutamine, antibiotics (100 units/mL Penicillin G and 100 μg/mL streptomycin sulfate) and amphotericin B (2.5 μg/mL). […]
(§2) For the entrance counterflow transport in proteoliposomes, the assay was started by the addition of 5 μL proteoliposomes solution (OD600 nm ˜30) to 200 μL, assay solution, containing 10 μM ^14C-radiolabeled glucose (for GLUT1 wild-type or F379H mutant and GLUT2-4) or fructose (for GLUT5 wild-type or H387F mutant and GLUT2) (Moravek Biochemicals) in 100 mM KPi buffer at pH 7.5. After one minute (or different specified time points when the time-dependent counter-flow transport activity was measured), the transport was stopped with ice-chilled quench buffer [0.1 M KPi (pH 5.5) and 0.1 M lithium chloride]. […]

[2] = target: T2, GLUT5H387F (Homo sapiens, UniProt P22732, H387F); experiment: Fructose entrance counter-flow transport in GLUT5H387F mutant proteoliposomes; format: biochemical; conditions: 2 mM compound
T2 construct: Full length DNA was subcloned into pFastBac1 (Life Technologies) vector with a N-terminal hexahistidine tag; hexahistidine (N); made in house; host or cells: Sf21 insect cells (baculovirus, pFastBac1)
T2 sequence (P22732 1-501 H387F): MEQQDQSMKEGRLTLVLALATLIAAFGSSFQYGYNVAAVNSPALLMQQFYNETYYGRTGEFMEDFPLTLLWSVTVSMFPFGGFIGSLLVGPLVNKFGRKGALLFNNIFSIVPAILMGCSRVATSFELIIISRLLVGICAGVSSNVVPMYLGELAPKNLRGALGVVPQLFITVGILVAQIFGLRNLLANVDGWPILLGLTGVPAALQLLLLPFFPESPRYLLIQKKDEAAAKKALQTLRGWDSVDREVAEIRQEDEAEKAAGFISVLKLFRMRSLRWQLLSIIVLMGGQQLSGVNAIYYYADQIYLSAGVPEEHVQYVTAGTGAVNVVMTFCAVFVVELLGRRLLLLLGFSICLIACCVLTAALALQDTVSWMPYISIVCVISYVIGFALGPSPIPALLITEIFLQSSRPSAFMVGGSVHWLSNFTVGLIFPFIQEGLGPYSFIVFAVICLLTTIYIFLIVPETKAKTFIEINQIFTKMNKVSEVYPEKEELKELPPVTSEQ
Description: as §1, §2

With `CS(=O)(=O)c1ccc(Nc2ccc3c(c2)OCO3)c([N+](=O)[O-])c1` [MSNBA, N-[4-(methylsulfonyl)-2-nitrophenyl]-1,3-benzodioxol-5-amine] the “effect on GLUT3 glucose transport” value [1] was “did not affect; also recorded: did not influence”, the “activity retained by GLUT5H387F” value [2] was 93% and the “effect on GLUT5H387F fructose transport” value [2] was “largely unaffected; also recorded: almost unsusceptible”.
